Measurements taken from US5945434A, “Indazole derivatives having monocyclic amine” (Nisshin Flour Milling Co., Ltd., priority 1995, dated 1999).

Molecular target: T1, 5-HT4 receptor (rat oesophageal tunica muscularis mucosae) (Rattus norvegicus, UniProt Q62758)
T1 construct: oesophageal tunica muscularis mucosae excised from rats; from tissue; host or cells: rat oesophageal tunica muscularis mucosae
T1 sequence (Q62758 whole entry): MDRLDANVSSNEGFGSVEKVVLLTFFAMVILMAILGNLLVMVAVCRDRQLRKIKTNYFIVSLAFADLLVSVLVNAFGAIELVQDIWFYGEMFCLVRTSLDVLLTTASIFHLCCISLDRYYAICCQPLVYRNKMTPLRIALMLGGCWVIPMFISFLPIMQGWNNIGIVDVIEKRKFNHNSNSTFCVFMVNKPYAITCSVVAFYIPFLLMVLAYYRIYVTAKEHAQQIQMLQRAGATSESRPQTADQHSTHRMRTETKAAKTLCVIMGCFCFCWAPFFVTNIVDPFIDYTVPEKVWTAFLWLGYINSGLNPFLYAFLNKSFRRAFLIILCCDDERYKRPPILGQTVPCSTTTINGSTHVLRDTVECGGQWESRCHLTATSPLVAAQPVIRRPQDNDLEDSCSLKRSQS
Experiment: 5-HT4 agonist activity: relaxation of carbachol-contracted rat oesophageal tunica muscularis mucosae
Type: cell-based
Settings: not given
Method: The agonist activities of the indazole derivatives of the present invention and Mosapride were determined by the following method, that is, the method determining 5-HT4 agonist activity by using rat oesophageal tunica muscularis mucosae (Naunyn-Schmiedeberg's Arch. Pharmacol., Vol. 343, 439-446, 1991).
According to the method of the literature, the oesophageal tunica muscularis mucosae excised from rats were suspended in an organ bath containing Krebs-Henseleit solution aerated with a mixed gas (95% O2, 5% CO2) and contracted with carbachol (1×10^-6 M). After the contraction was stabilized, the cumulative administration of the compounds was performed to determine the relaxation of the rat oesophagus pre-contracted with carbachol. The concentration (ED50) to cause 50% relaxation of the carbachol-induced contraction was measured. The result is expressed in terms of -log ED50 and shown in the following table in which higher numerical value indicates higher activity.
In the case of `CCCn1nc(C(=O)NC2CCNCC2)c2ccccc21` [Compound 20, N-(4-Piperidyl)-1-n-propylindazole-3-carboxamide], the EC50 is reported as 112 µM.
Work on `CCCCN1CCN(CCCNC(=O)c2nn(CCC)c3ccccc23)CC1` [Compound 1, N-[3-(4-n-Butyl-1-piperazinyl)propyl]-1-n-propylindazole-3-carboxamide] yielded an EC50 of 10.5 µM.
`CCCCCN1CCN(CCNC(=O)c2nn(CCC)c3ccccc23)CC1` [Compound 27, N-[2-(4-n-Pentyl-1-piperazinyl)ethyl]-1-n-propylindazole-3-carboxamide] showed an EC50 of 2.69 µM.
With `CCCCN1CCC(=CCNC(=O)c2nn(CCC)c3ccccc23)CC1` [Compound 5, N-[2-(1-n-Butyl-4-piperidylidene)ethyl]-1-n-propylindazole-3-carboxamide] the EC50 was 0.437 µM.
In the case of `CCCn1nc(C(=O)NCC=C2CCN(C)CC2)c2ccccc21` [Compound 4, N-[2-(1-Methyl-4-piperidylidene)ethyl]-1-n-propylindazole-3-carboxamide], the EC50 is reported as 9.77 µM.
Work on `CCCn1nc(C(=O)NCCN2CCN(C)CC2)c2ccccc21` [Compound 2, N-[2-(4-Methyl-1-piperazinyl)ethyl]-1-n-propylindazole-3-carboxamide] yielded an EC50 of 20.4 µM.
Compound `C=CCn1nc(C(=O)NCCN2CCN(Cc3ccc(F)cc3)CC2)c2ccccc21` [Compound 16, N-[2-(4-p-Fluorobenzyl-1-piperazinyl)ethyl]-1-allylindazole-3-carboxamide] has an EC50 of 7.41 µM.
Compound `CCCCN1CCN(CCNC(=O)c2nn(C(C)C)c3ccccc23)CC1` [Compound 30, N-[2-(4-n-Butyl-1-piperazinyl)ethyl]-1-isopropylindazole-3-carboxamide] has an EC50 of 2.95 µM.
Compound `CCCn1nc(C(=O)NCCN2CCN(Cc3ccc(F)cc3)CC2)c2ccccc21` [Compound 15, N-[2-(4-p-Fluorobenzyl-1-piperazinyl)ethyl]-1-n-propylindazole-3-carboxamide] has an EC50 of 6.76 µM.
Compound `CCCn1nc(C(=O)NCCN2CCN(Cc3ccc(OC)cc3)CC2)c2ccccc21` [Compound 28, N-[2-(4-p-Methoxybenzyl-1-piperazinyl)ethyl]-1-n-propylindazole-3-carboxamide] has an EC50 of 1.58 µM.
For `CCCCN1CCN(CCNC(=O)c2nn(C(C)CC)c3ccccc23)CC1` (stereo not drawn) [Compound 13, N-[2-(4-n-Butyl-1-piperazinyl)ethyl]-1-sec-butylindazole-3-carboxamide], the EC50 was 5.5 µM.
For `CCCCN1CCN(CCNC(=O)c2nn(C3CCCC3)c3ccccc23)CC1` [Compound 31, N-[2-(4-n-Butyl-1-piperazinyl)ethyl]-1-cyclopentylindazole-3-carboxamide], the EC50 was 5.01 µM.
Compound `CCCn1nc(C(=O)NCCC2CCN(C)CC2)c2ccccc21` [Compound 8, N-[2-(1-Methyl-4-piperidyl)ethyl]-1-n-propylindazole-3-carboxamide] has an EC50 of 10.7 µM.
`CCCn1nc(C(=O)NCC2CCNCC2)c2ccccc21` [Compound 21, N-(4-Piperidyl)methyl-1-n-propylindazole-3-carboxamide] showed an EC50 of 47.9 µM.
In the case of `CCCCN1CCCC(NC(=O)c2nn(CCC)c3ccccc23)CCC1` [Compound 6, N-(1-n-Butyl-5-octahydroazocinyl)-1-n-propylindazole-3-carboxamide], the EC50 is reported as 6.46 µM.
Work on `CCCCN1CCN(CCNC(=O)c2nn(C(CC)CC)c3ccccc23)CC1` [Compound 14, N-[2-(4-n-Butyl-1-piperazinyl)ethyl]-1-(3-pentyl)indazole-3-carboxamide] yielded an EC50 of 6.03 µM.
Compound `CCCCN1CCN(CCNC(=O)c2nn(CCC)c3ccccc23)CC1` [Compound 3, N-[2-(4-n-Butyl-1-piperazinyl)ethyl]-1-n-propylindazole-3-carboxamide] has an EC50 of 2.4 µM.
`C=CCN1CCN(CCNC(=O)c2nn(CCC)c3ccccc23)CC1` [Compound 25, N-[2-(4-Allyl-1-piperazinyl)ethyl]-1-n-propylindazole-3-carboxamide] gave an EC50 of 6.03 µM.
`CCCCN1CCC(CNC(=O)c2nn(CCC)c3ccccc23)CC1` [Compound 18, N-(1-n-Butyl-4-piperidyl)methyl-1-n-propylindazole-3-carboxamide] gave an EC50 of 7.94 µM.
`CCCCN1CCN(CCNC(=O)c2nn(CC)c3ccccc23)CC1` [Compound 29, N-[2-(4-n-Butyl-1-piperazinyl)ethyl]-1-ethylindazole-3-carboxamide] gave an EC50 of 10.2 µM.
In the case of `CCCn1nc(C(=O)NCC=C2CCN(Cc3ccc(F)cc3)CC2)c2ccccc21` [Compound 12, N-[2-(1-p-Fluorobenzyl-4-piperidylidene)ethyl]-1-n-propylindazole-3-carboxamide], the EC50 is reported as 3.39 µM.
With `CCCCN1CCC(CCNC(=O)c2nn(CCC)c3ccccc23)CC1` [Compound 19, N-[2-(1-n-Butyl-4-piperidyl)ethyl]-1-n-propylindazole-3-carboxamide] the EC50 was 1.29 µM.
Compound `CCCn1nc(C(=O)NC2CCN(Cc3ccccc3)CC2)c2ccccc21` [Compound 17, N-(1-Benzyl-4-piperidyl)-1-n-propylindazole-3-carboxamide] has an EC50 of 3.39 µM.
For `CCCn1nc(C(=O)NCC2CCN(C)CC2)c2ccccc21` [Compound 7, N-(1-Methyl-4-piperidyl)methyl-1-n-propylindazole-3-carboxamide], the EC50 was 5.01 µM.
Work on `CCCCN1CCC(NC(=O)c2nn(CCC)c3ccccc23)CC1` [Compound 23, N-(1-n-Butyl-4-piperidyl)-1-n-propylindazole-3-carboxamide] yielded an EC50 of 2.82 µM.
`CCCN1CCN(CCNC(=O)c2nn(CCC)c3ccccc23)CC1` [Compound 26, N-[2-(4-n-Propyl-1-piperazinyl)ethyl]-1-n-propylindazole-3-carboxamide] showed an EC50 of 8.91 µM.
With `CCCn1nc(C(=O)NC2CCN(C)CC2)c2ccccc21` [Compound 22, N-(1-Methyl-4-piperidyl)-1-n-propylindazole-3-carboxamide] the EC50 was 6.92 µM.

Same assay, conditions: concentration causing 50% relaxation of the carbachol (1×10^-6 M)-induced contraction; cumulative administration; read-out: Activity (-log ED50) (converted)
For `CCCCN1CCN(CCNC(=S)c2nn(CCC)c3ccccc23)CC1` [Compound 32, N-[2-(4-n-Butyl-1-piperazinyl)ethyl]-1-n-propylindazole-3-thiocarboxamide], the EC50 was 10.5 µM.
Compound `CCCCN1CCN(CCNCc2nn(CCC)c3ccccc23)CC1` [Compound 33, 3-{N-[2-(4-n-Butyl-1-piperazinyl)ethyl]aminomethyl}-1-n-propylindazole] has an EC50 of 29.5 µM.
Work on `O=C(NCCN1CCN(Cc2ccc(F)cc2)CC1)c1n[nH]c2ccccc12` [Compound 11, N-[2-(4-p-Fluorobenzyl-1-piperazinyl)ethyl]-1H-indazole-3-carboxamide] yielded an EC50 of 12.6 µM.
Work on `O=C(NCC=C1CCN(Cc2ccc(F)cc2)CC1)c1n[nH]c2ccccc12` [Compound 9, N-[2-(1-p-Fluorobenzyl-4-piperidylidene)ethyl]-1H-indazole-3-carboxamide] yielded an EC50 of 7.41 µM.

Test system: 5-HT4 receptor
Experiment: not given
Settings: WO 9303725; cited from earlier work
In the case of `CCCCN1CCC(COC(=O)c2nn(C)c3ccccc23)CC1` [(1-butyl-4-piperidyl)methyl-1-methylindazole-3-carboxylate], the “5-HT4 receptor antagonist activity (in words)” value is given as “has a 5-HT4 receptor antagonist activity”.

Test system: not given
Experiment: not given
Settings: U.S. Pat. No. 3,145,215; cited from earlier work
In the case of `CN1CCN(CCNC(=O)c2n[nH]c3ccccc23)CC1` [N-[2-(4-methyl-1-piperazinyl)ethyl]-1H-indazole-3-carboxamide], the “hypotensive activity (in words)” value is given as “has hypotensive activity”.
